Consider 26 compounds from ChEMBL document CHEMBL1134910 (Bioorg Med Chem Lett, 2002).

In assay [1] the target is Adenosine receptor A2a (Sus scrofa).
The target in another assay is Adenosine receptor A2a (Rattus norvegicus, UniProt P30543).
In another assay the target is T1, Adenosine receptor A3 (Homo sapiens, UniProt P0DMS8).
T1 sequence (P0DMS8 whole entry): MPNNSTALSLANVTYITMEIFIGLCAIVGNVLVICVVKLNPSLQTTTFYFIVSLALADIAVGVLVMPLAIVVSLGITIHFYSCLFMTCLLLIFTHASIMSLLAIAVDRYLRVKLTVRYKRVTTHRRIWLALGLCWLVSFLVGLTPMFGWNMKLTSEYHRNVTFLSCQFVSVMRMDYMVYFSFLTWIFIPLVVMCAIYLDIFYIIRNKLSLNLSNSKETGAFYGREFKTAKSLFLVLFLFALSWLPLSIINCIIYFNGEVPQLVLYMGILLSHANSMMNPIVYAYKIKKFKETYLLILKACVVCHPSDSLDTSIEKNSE
Put plainly: Binding affinity for Adenosine A3A receptor.

The next assay concerns the target T2, Adenosine receptor A1 (Homo sapiens, UniProt P30542).
T2 sequence (P30542 whole entry): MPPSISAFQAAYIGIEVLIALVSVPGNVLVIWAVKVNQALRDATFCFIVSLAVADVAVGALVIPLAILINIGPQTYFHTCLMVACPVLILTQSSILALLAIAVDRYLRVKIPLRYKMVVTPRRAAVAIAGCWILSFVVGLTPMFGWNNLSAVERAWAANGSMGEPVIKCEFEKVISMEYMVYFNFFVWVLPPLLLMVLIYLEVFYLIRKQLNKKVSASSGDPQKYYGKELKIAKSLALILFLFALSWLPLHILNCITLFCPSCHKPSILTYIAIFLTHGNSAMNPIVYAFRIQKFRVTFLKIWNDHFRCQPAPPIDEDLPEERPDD
As to the kind of experiment: Binding affinity for adenosine (ADO) A1 receptor in CHO cells. In kind it is cell-based.

Adenosine receptor A2a, sequence (P30543 whole entry): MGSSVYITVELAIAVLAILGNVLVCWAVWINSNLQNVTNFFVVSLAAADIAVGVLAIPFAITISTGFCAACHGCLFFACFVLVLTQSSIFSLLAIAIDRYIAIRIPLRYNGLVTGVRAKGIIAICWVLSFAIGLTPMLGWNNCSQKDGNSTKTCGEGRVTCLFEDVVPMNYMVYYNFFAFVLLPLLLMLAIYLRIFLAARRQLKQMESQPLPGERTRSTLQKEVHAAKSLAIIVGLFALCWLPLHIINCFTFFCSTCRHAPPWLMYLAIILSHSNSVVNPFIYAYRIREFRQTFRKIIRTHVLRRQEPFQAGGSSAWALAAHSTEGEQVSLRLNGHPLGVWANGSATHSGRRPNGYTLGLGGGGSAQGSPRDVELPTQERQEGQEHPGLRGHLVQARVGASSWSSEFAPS

One may read the Ki as the equilibrium dissociation constant of an inhibitor or competing ligand from its target. Read a low Ki as higher affinity. With `CN(C)C(=O)Cn1cc(-c2nc(N)c3ncn([C@@H]4O[C@H](CO)[C@@H](O)[C@H]4O)c3n2)cn1`, the Ki in assay [1] is > 100000 nM; at Adenosine receptor A2a it was 21000 nM.

`Nc1nc(-c2cnn(CCCC3CCCCC3)c2)nc2c1ncn2[C@@H]1O[C@H](CO)[C@@H](O)[C@H]1O`: the Ki turned out to be 6680 nM in assay [1] and 2620 nM at Adenosine receptor A2a.

As to `CCOC(=O)c1cnn(-c2nc(N)c3ncn([C@@H]4O[C@H](CO)[C@@H](O)[C@H]4O)c3n2)c1`, the Ki in assay [1] came out at 1280 nM; on Adenosine receptor A2a it was 60 nM.

For `NC(=O)c1cnn(-c2nc(N)c3ncn([C@@H]4O[C@H](CO)[C@@H](O)[C@H]4O)c3n2)c1`, the Ki turned out to be 1350 nM in assay [1] and 350 nM on Adenosine receptor A2a.

Regarding `Nc1nc(-c2cnn(CCc3ccccc3)c2)nc2c1ncn2[C@@H]1O[C@H](CO)[C@@H](O)[C@H]1O`, the Ki in assay [1] worked out at 5900 nM; on Adenosine receptor A2a, 2260 nM.

Turning to `CCCCCn1cc(-c2nc(N)c3ncn([C@@H]4O[C@H](CO)[C@@H](O)[C@H]4O)c3n2)cn1`, the Ki was > 10000 nM at Adenosine receptor A3, 2140 nM in assay [1] and 2590 nM on Adenosine receptor A2a.

In turn, `Nc1nc(N/N=C\C2CCCCC2)nc2c1ncn2[C@@H]1O[C@H](CO)[C@@H](O)[C@H]1O` displayed a Ki at Adenosine receptor A2a of 66 nM.

`CNC(=O)Cn1cc(-c2nc(N)c3ncn([C@@H]4O[C@H](CO)[C@@H](O)[C@H]4O)c3n2)cn1`: the inhibition constant (Ki) (in assay [1]; at Adenosine receptor A2a) was > 100000 nM in each case.

As for `Cc1cc(-c2ccccc2)nn1-c1nc(N)c2ncn([C@@H]3O[C@H](CO)[C@@H](O)[C@H]3O)c2n1`, the Ki in assay [1] is > 100000 nM.

Take `Cn1cc(-c2nc(N)c3ncn([C@@H]4O[C@H](CO)[C@@H](O)[C@H]4O)c3n2)cn1`: the Ki (in assay [1]; at Adenosine receptor A2a) was > 100000 nM in each case.

As to `COc1ccc(-c2cnn(-c3nc(N)c4ncn([C@@H]5O[C@H](CO)[C@@H](O)[C@H]5O)c4n3)c2)cc1`, the results for the inhibition constant (Ki) (in assay [1]; on Adenosine receptor A2a) were 560 nM and 190 nM, respectively.

For `C=CCCCn1cc(-c2nc(N)c3ncn([C@@H]4O[C@H](CO)[C@@H](O)[C@H]4O)c3n2)cn1`, the inhibition constant Ki stood at 1710 nM in assay [1] and 470 nM on Adenosine receptor A2a.

Consider `Nc1nc(-c2cnn(CC(=O)O)c2)nc2c1ncn2[C@@H]1O[C@H](CO)[C@@H](O)[C@H]1O`, for which the Ki (in assay [1]; on Adenosine receptor A2a) was > 100000 nM throughout.

In the case of `CN(C)C(=O)c1cnn(-c2nc(N)c3ncn([C@@H]4O[C@H](CO)[C@@H](O)[C@H]4O)c3n2)c1`, the Ki in assay [1] stood at 440 nM; at Adenosine receptor A2a, 140 nM.

Regarding `CCCCc1c(C)nn(-c2nc(N)c3ncn([C@@H]4O[C@H](CO)[C@@H](O)[C@H]4O)c3n2)c1C`, in assay [1], the Ki was > 100000 nM.

Consider `Nc1nc(-c2cnn(Cc3ccccc3)c2)nc2c1ncn2[C@@H]1O[C@H](CO)[C@@H](O)[C@H]1O`, for which the Ki in assay [1] turned out to be 1580 nM; on Adenosine receptor A2a, 1610 nM.

As to `Cc1ccc(-c2cnn(-c3nc(N)c4ncn([C@@H]5O[C@H](CO)[C@@H](O)[C@H]5O)c4n3)c2)cc1`, the Ki in assay [1] was 490 nM; at Adenosine receptor A2a, 190 nM.

As to `CCCNC(=O)c1cnn(-c2nc(N)c3ncn([C@@H]4O[C@H](CO)[C@@H](O)[C@H]4O)c3n2)c1`, the Ki in assay [1] was found to be 120 nM; at Adenosine receptor A2a it was 50 nM.

On to `CC(C)(C)c1ccc(Cn2cc(-c3nc(N)c4ncn([C@@H]5O[C@H](CO)[C@@H](O)[C@H]5O)c4n3)cn2)cc1`, for which the Ki in assay [1] is 2420 nM; on Adenosine receptor A2a it was 5290 nM.

On to `Nc1nc(-c2cn[nH]c2)nc2c1ncn2[C@@H]1O[C@H](CO)[C@@H](O)[C@H]1O`, for which the inhibition constant Ki (in assay [1]; at Adenosine receptor A2a) was > 100000 nM in each case.

For `CCCCCCCCCCn1cc(-c2nc(N)c3ncn([C@@H]4O[C@H](CO)[C@@H](O)[C@H]4O)c3n2)cn1`, the Ki in assay [1] was > 100000 nM; at Adenosine receptor A2a, 6110 nM.

In the case of `CCCc1c(C)nn(-c2nc(N)c3ncn([C@@H]4O[C@H](CO)[C@@H](O)[C@H]4O)c3n2)c1C`, the Ki in assay [1] was > 100000 nM.

Regarding `CCNC(=O)c1cnn(-c2nc(N)c3ncn([C@@H]4O[C@H](CO)[C@@H](O)[C@H]4O)c3n2)c1`, the results for the inhibition constant Ki (in assay [1]; at Adenosine receptor A2a) were 380 nM and 60 nM, respectively.

In the case of `CCNC(=O)Cn1cc(-c2nc(N)c3ncn([C@@H]4O[C@H](CO)[C@@H](O)[C@H]4O)c3n2)cn1`, the Ki (in assay [1]; at Adenosine receptor A2a) was > 100000 nM each time.

With `Nc1nc(-c2cnn(CC3CCCCC3)c2)nc2c1ncn2[C@@H]1O[C@H](CO)[C@@H](O)[C@H]1O`, the Ki in assay [1] amounted to 880 nM; at Adenosine receptor A2a it was 220 nM.

For `CNC(=O)c1cnn(-c2nc(N)c3ncn([C@@H]4O[C@H](CO)[C@@H](O)[C@H]4O)c3n2)c1` [REGADENOSON ANHYDROUS], the figures for the Ki on Adenosine receptor A1 and on Adenosine receptor A3 were > 16500 nM and > 10000 nM, respectively.
